Measurements reported in US9371345B2, “Metathesis catalysts containing onium groups” (Apeiron Synthesis S.A., priority 2012, dated 2016).

Assay: Solubility of the complex in water and alcohols
Format: physicochemical

SMILES | Water solubility | Solubility in methanol, ethanol and water/alcohol mixture, in words (methanol, ethanol, water/alcohol mixture) | Solubility in water, in words (neat / pure water)
CC(C)c1cc(C[N+]2(C)CCOCC2)cc(C(C)C)c1N1CCN(c2c(C(C)C)cc(C[N+]3(C)CCOCC3)cc2C(C)C)[CH]1[Ru]([Cl])([Cl])=[CH]c1ccccc1OC1CC[N+](C)(C)CC1 [Complex 55] | 65000 µg/mL | – | –
CC(C)c1cccc(C(C)C)c1N1CCN(c2c(C(C)C)cccc2C(C)C)[CH]1[Ru]([Cl])([Cl])=[CH]c1ccccc1OC1CC[N+](C)(C)CC1 [Complex 48] | – | excellent solubility | Insoluble
Cc1cc(C)c(N2CC(C[N+](C)(C)C)N(c3c(C)cc(C)cc3C)[CH]2[Ru]([Cl])([Cl])=[CH]c2cc([N+](=O)[O-])ccc2OC(C)C)c(C)c1 (stereo not drawn) [Complex 50] | 3000 µg/mL | – | –
CC[N+]1(C)CCN(CC2CN(c3c(C)cc(C)cc3C)[CH]([Ru]([Cl])([Cl])=[CH]c3ccccc3OC(C)C)N2c2c(C)cc(C)cc2C)CC1 (stereo not drawn) [Complex 52] | 3000 µg/mL | – | –

Further lines, results first:

Water solubility | Solubility in methanol, ethanol and water/alcohol mixture, in words (methanol, ethanol, water/alcohol mixture) | Solubility in water, in words (neat / pure water) | SMILES
35000 µg/mL | – | – | Cc1cc(C)c(N2CC(C[N+](C)(C)C)N(c3c(C)cc(C)cc3C)[CH]2[Ru]([Cl])([Cl])=[CH]c2ccccc2OC2CC[N+](C)(C)CC2)c(C)c1 (stereo not drawn) [Complex 51]
1000 µg/mL | – | – | Cc1cc(C)c(N2CCN(c3c(C)cc(C)cc3C)[CH]2[Ru]([Cl])([Cl])=[CH]c2cc([N+](C)(C)C)ccc2OC(C)C)c(C)c1 [Complex 56]
2000 µg/mL | – | – | CC(C)Oc1ccccc1[CH]=[Ru]([Cl])([Cl])[CH]1N(c2c(C(C)C)cc(C[N+]3(C)CCOCC3)cc2C(C)C)CCN1c1c(C(C)C)cc(C[N+]2(C)CCOCC2)cc1C(C)C [Complex 54]
35000 µg/mL | – | – | CC[N+]1(C)CCN(CC2CN(c3c(C)cc(C)cc3C)[CH]([Ru]([Cl])([Cl])=[CH]c3ccccc3OC3CC[N+](C)(C)CC3)N2c2c(C)cc(C)cc2C)CC1 (stereo not drawn) [Complex 53]
